Assay results taken from US9043995B2, “Transgenic fish and uses thereof” (CITY UNIVERSITY OF HONG KONG, priority 2010, dated 2015).
Entries after “also recorded” stand apart in the source; their conditions may differ.

Experiments:
[1] = test system: transgenic medaka fish larvae (omChgH promoter-EGFP); assay: Binary exposure with E2: change of the liver GFP signal induced by 17β-estradiol in transgenic medaka larvae (agonism / anti-estrogen activity); format: in vivo, Oryzias melastigma; conditions: for effect on estrogenic activity / liver GFP signal induced by 17β-estradiol: binary exposure with E2
Method: Another method of the present invention relates to a method of screening for a compound having anti-estrogenic activity.
(§1) In response to different concentrations of estrogen or estrogen-like chemical substances, transgenic fish expresses varying quantity of EGFP protein which is presented as varying GFP signal intensity under fluorescence microscope. […] To quantify the estrogen-like activity of test solution, fluorescent image of fish liver is recorded using a camera connected with the fluorescence microscope. Liver GFP signal intensity can then be measured using some image analysis software such as Metamorph (Universal Imaging). To reduce the interference of fish autofluorescence, only fish liver area was selected for the analysis. The average signal intensity of the manually marked area calculated using the same software was regarded as GFP signal intensity. Fish liver photos recorded using the same image parameter setting can be compared directly using GFP signal intensity, those photos recorded using varying image parameter settings can also be compared as long as each group contain a common reference control.
6-acetyl-1,1,2,4,4,7-hexamethyltetraline (AHTN) is one of the most widely used polycyclic musk. This compound is used as a fragrance ingredient in cosmetics and household cleaning products. According to HERA Risk Assessment reports in 2004, AHTN is produced in an annual volume of 1000 to 5000 tons in one Netherland and UK plant, respectively. According to HERA Risk Assessments, AHTN is not toxic to humans basing on present daily consumption. However, the ubiquitous distribution, high accumulation in environment (A Peck et al. Environ Sci Technol. 40: 5629-5635 (2006)), and bioaccumulation in organisms including human beings (H Nakata et al. Environ Sci Technol. 41: 2216-2222 (2007); S Lignell et al. Environ Sci Technol. 42: 6743-6748 (2008)) raise the concern of scientists. AHTN is found to be estrogen antagonist (RHMM Schreurs et al. Environ Sci Technol. 38: 997-1002 (2004); RHMM Schreurs et al. Toxicol Sci. 83: 264-272 (2005)). The estrogen antagonist activity of AHTN can also be very easily evaluated using transgenic medaka fish of present invention. Just expose transgenic medaka fish larvae to E2 (e.g. 0.04 μM) or E2 incombination with AHTN (e.g. 5 μM) for a period of time (e.g. 24 hours), and then measure the GFP signal intensity induced by E2 with/without the presence of AHTN.

[2] = test system: transgenic brackish medaka larvae (omChgH promoter-EGFP); assay: Estrogen-like activity: induced liver GFP signal in omChgH promoter-EGFP transgenic brackish medaka fish exposed to test solution; format: in vivo, Oryzias melastigma; conditions: for induction of GFP expression in the liver, compound alone: transgenic O. melastigma fish/larvae; for induction of liver GFP expression: transgenic brackish medaka larvae, at nM level; for GFP signal in the liver: phytoestrogens separately, high concentrations, 48 hours
Method: A generalized exposure regimen is established in the present art. FIG. 4 presents an example of using transgenic fish larvae to analyze the estrogen-like activity of a test solution. Exposure of transgenic brackish medaka fish (preferably yolk-sac larvae fish) to test solution (containing estrogen or estrogenic substances) is performed at 28° C. The exposure usually takes 24-48 hours. After exposure, the fish will be deposited on the inner side of a petri-dish cover with a small drop of test solution left. The induced EGFP expression in the fish liver will be observed under fluorescence microscope. Yolk-sac larvae are small, exposure can be carried out in utensils like 96-well plate, 24-well plate, petri-dish and so on to save test reagents. Additionally, newly hatched larvae are the most transparent stage, and the transparence can keep up to 15 days after hatch. After 15 days, the larvae will be gradually less transparent due to the development of muscle. The transgenic fish larvae of 1 to 15 days after hatch have similar estrogen sensitivity (FIG. 5).
as §1
Estrone (E1), 17β-estradiol (E2) and estriol (E3) are natural steroid estrogens. […] Of them, E2 has been intensively studied, and is commonly used as a standard estrogen to evaluate the estrogen-like activity of testing reagents. Using transgenic larvae of present invention, induced GFP signal by E2 can usually be observed within 24 hours, and the GFP signal increases with the increasing concentration of E2. At higher E2 concentrations (e.g., 102 or 1020 nM), induced GFP signal intensity can even be observed within 4 hours after onset of exposure, and the signal increases with exposure time (FIG. 8), and reaches saturation within 24 hours. At low E2 concentrations, however, it will take longer for the induced GFP signal to accumulate to become detectable. Thus, by exposing transgenic brackish medaka fish larvae to different concentrations of E2 for a period of time (such as 24 hours), imaging the GFP expressing liver, and then measuring the induced liver GFP signal intensity using image analysis software, a standard curve correlating GFP signal intensity and E2 concentration can be established (GFP-E2 standard curve; FIG. 9). Using the same regimen, and also include one known E2 concentration exposure as reference, the estrogen-like activity of test reagents can then be evaluated as estrogen potency equivalent by referring the induced liver GFP signal to that of GFP-E2 standard curve.

| Structure (SMILES) | effect on estrogenic activity / liver GFP signal induced by 17β-estradiol [1] | induction of GFP expression in the liver, compound alone [2] | GFP signal in the liver [2] | also measured |
| --- | --- | --- | --- | --- |
| CC(=O)c1cc2c(cc1C)C(C)(C)C(C)CC2(C)C (stereo not drawn) [AHTN, 6-acetyl-1,1,2,4,4,7-hexamethyltetraline] | decreased |  |  | GFP signal induced by E2 in the presence of AHTN ([1]; E2 0.04 μM, AHTN 5 μM, 24 hours): weaker GFP signal |
| COc1ccc(C(=O)CC(=O)c2ccc(C(C)(C)C)cc2)cc1 [BMDM, 4-tert-Butyl-4′-methoxydibenzoylmethane] | estrogen agonism | cannot induce the GFP expression |  |  |
| CC(C)(c1ccc(O)cc1)c1ccc(O)cc1 [BPA, bisphenol A] |  | can also induce GFP expression |  |  |
| C[C@]12CC[C@@H]3c4ccc(O)cc4CC[C@H]3[C@@H]1CC[C@@H]2O [E2, 17β-estradiol, reference compound] |  |  |  | time until induced GFP signal can be observed, higher E2 concentrations ([2]; 102 or 1020 nM, after onset of exposure): ≤ 4 h; induced expression of transgene GFP in the liver ([2]; embryo, larva and male fish): can also be induced; time until GFP signal reaches saturation ([2]; higher E2 concentrations (102 or 1020 nM)): ≤ 24 h; induction of liver GFP expression [2]: can induce liver GFP expression; time until induced GFP signal can be observed ([2]; transgenic larvae, E2 exposure): ≤ 24 h |
| C[C@]12CC[C@@H]3c4ccc(O)cc4CC[C@H]3[C@@H]1C[C@@H](O)[C@@H]2O [E3, estriol, reference compound] |  |  |  | induction of liver GFP expression [2]: can induce liver GFP expression |
| CC1CC(OC(=O)c2ccccc2O)CC(C)(C)C1 (stereo not drawn) [HMS, homosalate] | can enhance the estrogenic activity of 17β-estradiol in a dose-dependent manner; also recorded: increased | cannot induce the GFP expression |  |  |
| CCCCCCCCCc1ccc(O)cc1 [NP, 4-nonyphenol] |  | can also induce GFP expression |  |  |
| CCCCC(CC)COC(=O)c1ccc(N(C)C)cc1 (stereo not drawn) [OD-PABA, octyl dimethyl PABA] | estrogen agonism | cannot induce the GFP expression |  |  |
| O=c1c(-c2ccc(O)cc2)coc2cc(O)ccc12 [daidzein] |  |  | weak GFP signal |  |
| O=c1c(-c2ccc(O)cc2)coc2cc(O[C@@H]3O[C@H](CO)[C@@H](O)[C@H](O)[C@H]3O)ccc12 [daidzin] |  |  | weak GFP signal |  |
| C#C[C@]1(O)CC[C@H]2[C@@H]3CCc4cc(OC)ccc4[C@H]3CC[C@@]21C [ethinylestradiol 3-methyl ether, reference compound] |  |  |  | induced liver GFP signal compared with E2 ([2]; same concentration (nM), same period (24 hours)): stronger than that induced by E2 |
| O=c1c(-c2ccc(O)cc2)coc2cc(O)cc(O)c12 [genistein] |  |  | weak GFP signal |  |
| O=c1c(-c2ccc(O)cc2)coc2cc(O[C@@H]3O[C@H](CO)[C@@H](O)[C@H](O)[C@H]3O)cc(O)c12 [genistin] |  |  | weak GFP signal |  |
